Assay results: patent US20250049777A1, “PHARMACEUTICALLY ACCEPTABLE SALT AND CRYSTALLINE FORM OF GLP-1 RECEPTOR AGONIST AND PREPARATION METHOD THEREFOR” (JIANGSU HENGRUI PHARMACEUTICALS CO., LTD., priority 2021, published 2025)
Structures can show the parent of a compound that is named as a salt. Where two headings read alike, the source gives them in different places.

Legend:
[1] = Hygroscopicity of crystal forms of salts (DVS, 25° C.); assay type: physicochemical; details: for Crystal form after DVS: 0% to 95% RH
Description: According to the description of hygroscopic characteristics and the definition of hygroscopic weight gain in “9103 Guidelines for Hygroscopicity of Pharmaceuticals”, Chinese Pharmacopoeia, Volume IV, 2015 edition, the following are defined: • deliquescent: absorbing enough water to form a liquid; • extremely hygroscopic: having a hygroscopic weight gain of not less than 15%; • hygroscopic: having a hygroscopic weight gain of less than 15% and not less than 2%; • slightly hygroscopic: having a hygroscopic weight gain of less than 2% and not less than 0.2%; and • no or almost no hygroscopicity: having a hygroscopic weight gain of less than 0.2%.
Surface Measurement Systems intrinsic DVS was used at 25° C. The observed humidity ranged from 0% to 95%. The step was 10%. The criterion was that the mass change dM/dT for each step was less than 0.002%. TMAX was 360 min. Two cycles were carried out.

[2] = Stability of crystal forms of salts under influencing factors (illumination, high temperature, high humidity); assay type: physicochemical
Description: The sampling and investigation period was 30 days.

[3] = assay type: physicochemical
Experimental: A salt-type sample was sealed with an aluminum foil bag and placed under the conditions of 25° C./60% RH and 40° C./75% RH, respectively, to investigate the stability.

[4] = Illumination (4500 Lux), 7 days, open
[5] = Illumination (4500 Lux), 14 days, open
[6] = Illumination (4500 Lux), 30 days, open
[7] = 25° C./60% RH, sealed aluminum foil bag
[8] = 40° C./75% RH, sealed aluminum foil bag
[9] = 25° C./60% RH, 1 month, sealed aluminum foil bag
[10] = 25° C./60% RH, 3 months, sealed aluminum foil bag
[11] = 40° C./75% RH, 1 month, sealed aluminum foil bag
[12] = 40° C./75% RH, 3 months, sealed aluminum foil bag
[13] = 25° C./60% RH, 2 months, sealed aluminum foil bag
[14] = 40° C./75% RH, 2 months, sealed aluminum foil bag
[15] = Illumination (4500 Lux), 5 days, open
[16] = Illumination (4500 Lux), 10 days, open

O=C(O)c1ccc2nc(CN3CCC(c4cccc5c4O[C@@H](c4ccc(Cl)cc4F)CO5)CC3)n(C[C@@H]3CCO3)c2c1 [Crystal form A of tromethamine salt, 2-((4-((S)-3-(4-chloro-2-fluorophenyl)-2,3-dihydrobenzo[b][1,4]dioxan-5-yl)piperidin-1-yl)methyl)-1-(((S)-oxetan-2-yl)methyl)-1H-benzo[d]imidazole-6-carboxylic acid]
hygroscopic weight gain 0.0% RH to 80.0% RH [1]: 5.02% | Crystal form after DVS [1]: Unchanged | chemical stability [2]: slightly poor chemical stability | % Purity ([2]; 40° C., 7 days, open): 96.1% | Crystal form ([2]; 40° C., 7 days, open): Unchanged | % Purity ([2]; 40° C., 14 days, open): 91.7% | Crystal form ([2]; 40° C., 14 days, open): Unchanged | % Purity ([2]; 40° C., 30 days, open): 87.4% | Crystal form ([2]; 40° C., 30 days, open): Unchanged | % Purity ([2]; 60° C., 7 days, open): 93.5% | Crystal form ([2]; 60° C., 7 days, open): Unchanged | % Purity ([2]; 60° C., 14 days, open): 88.6% | Crystal form ([2]; 60° C., 14 days, open): Unchanged | % Purity ([2]; 75% RH, 7 days, open): 99.4% | Crystal form ([2]; 75% RH, 7 days, open): Unchanged | % Purity ([2]; 75% RH, 14 days, open): 99.4% | Crystal form ([2]; 75% RH, 14 days, open): Unchanged | % Purity ([2]; 75% RH, 30 days, open): 99.3% | Crystal form ([2]; 75% RH, 30 days, open): Unchanged | % Purity ([2]; 92.5% RH, 7 days, open): 99.3% | Crystal form ([2]; 92.5% RH, 7 days, open): Unchanged | % Purity ([2]; 92.5% RH, 14 days, open): 99.0% | Crystal form ([2]; 92.5% RH, 14 days, open): Unchanged | % Purity ([2]; 92.5% RH, 30 days, open): 98.6% | Crystal form ([2]; 92.5% RH, 30 days, open): Unchanged | % Purity [2, 4]: 98.9% | Crystal form [2, 4]: Unchanged | % Purity [2, 5]: 97.6% | Crystal form [2, 5]: Unchanged | % Purity [2, 6]: 90.8% | Crystal form [2, 6]: Unchanged | % Purity ([2]; Initial condition, 0 days): 99.5% | physical and chemical stability [3]: good physical and chemical stability | Crystal form [3, 7]: Unchanged | Crystal form [3, 8]: Unchanged

O=C(O)c1ccc2nc(CN3CCC(c4cccc5c4O[C@@H](c4ccc(Cl)cc4F)CO5)CC3)n(C[C@@H]3CCO3)c2c1 [Crystal form D of tromethamine salt, 2-((4-((S)-3-(4-chloro-2-fluorophenyl)-2,3-dihydrobenzo[b][1,4]dioxan-5-yl)piperidin-1-yl)methyl)-1-(((S)-oxetan-2-yl)methyl)-1H-benzo[d]imidazole-6-carboxylic acid]
hygroscopic weight gain 0.0% RH to 80.0% RH [1]: 2.45% | Crystal form after DVS [1]: Unchanged | % Purity ([2]; 40° C., 7 days, open): 99.5% | Crystal form ([2]; 40° C., 7 days, open): Unchanged | % Purity ([2]; 40° C., 14 days, open): 99.3% | Crystal form ([2]; 40° C., 14 days, open): Unchanged | % Purity ([2]; 40° C., 30 days, open): 99.3% | Crystal form ([2]; 40° C., 30 days, open): Unchanged | % Purity ([2]; 60° C., 7 days, open): 99.4% | Crystal form ([2]; 60° C., 7 days, open): Unchanged | % Purity ([2]; 60° C., 14 days, open): 99.1% | Crystal form ([2]; 60° C., 14 days, open): Unchanged | % Purity ([2]; 60° C., 30 days, open): 99.0% | Crystal form ([2]; 60° C., 30 days, open): Unchanged | % Purity ([2]; 75% RH, 7 days, open): 99.7% | Crystal form ([2]; 75% RH, 7 days, open): Unchanged | % Purity ([2]; 75% RH, 14 days, open): 99.6% | Crystal form ([2]; 75% RH, 14 days, open): Unchanged | % Purity ([2]; 75% RH, 30 days, open): 99.6% | Crystal form ([2]; 75% RH, 30 days, open): Unchanged | % Purity ([2]; 92.5% RH, 7 days, open): 99.5% | Crystal form ([2]; 92.5% RH, 7 days, open): Unchanged | % Purity ([2]; 92.5% RH, 14 days, open): 99.4% | Crystal form ([2]; 92.5% RH, 14 days, open): Unchanged | % Purity ([2]; 92.5% RH, 30 days, open): 99.0% | Crystal form ([2]; 92.5% RH, 30 days, open): Unchanged | % Purity [2, 4]: 99.6% | Crystal form [2, 4]: Unchanged | % Purity [2, 5]: 99.6% | Crystal form [2, 5]: Unchanged | % Purity [2, 6]: 99.6% | Crystal form [2, 6]: Unchanged | % Purity ([2]; Initial condition, 0 days): 99.7% | physical and chemical stability [3]: good physical and chemical stability | % Purity [3, 9]: 99.7% | % Purity [3, 10]: 99.7% | Crystal form [3, 7]: Unchanged | % Purity [3, 11]: 99.5% | % Purity [3, 12]: 99.1% | Crystal form [3, 8]: Unchanged | % Purity ([3]; Initial condition): 99.7%

O=C(O)c1ccc2nc(CN3CCC(c4cccc5c4O[C@@H](c4ccc(Cl)cc4F)CO5)CC3)n(C[C@@H]3CCO3)c2c1 [Crystal form E of tromethamine salt, 2-((4-((S)-3-(4-chloro-2-fluorophenyl)-2,3-dihydrobenzo[b][1,4]dioxan-5-yl)piperidin-1-yl)methyl)-1-(((S)-oxetan-2-yl)methyl)-1H-benzo[d]imidazole-6-carboxylic acid]
hygroscopic weight gain 0.0% RH to 80.0% RH [1]: 7.27% | Crystal form after DVS [1]: Unchanged | chemical stability [2]: slightly poor chemical stability | physical stability [2]: slightly poor physical stability | % Purity ([2]; 40° C., 7 days, open): 96.0% | Crystal form ([2]; 40° C., 7 days, open): Unchanged | % Purity ([2]; 40° C., 14 days, open): 93.6% | Crystal form ([2]; 40° C., 14 days, open): Unchanged | % Purity ([2]; 40° C., 30 days, open): 85.0% | Crystal form ([2]; 40° C., 30 days, open): Unchanged | % Purity ([2]; 60° C., 7 days, open): 94.8% | Crystal form ([2]; 60° C., 7 days, open): Unchanged | % Purity ([2]; 60° C., 30 days, open): 81.8% | Crystal form ([2]; 60° C., 30 days, open): Amorphous form | % Purity ([2]; 75% RH, 7 days, open): 98.3% | Crystal form ([2]; 75% RH, 7 days, open): Unchanged | % Purity ([2]; 75% RH, 14 days, open): 98.4% | Crystal form ([2]; 75% RH, 14 days, open): Unchanged | % Purity ([2]; 75% RH, 30 days, open): 98.3% | Crystal form ([2]; 75% RH, 30 days, open): Unchanged | % Purity ([2]; 92.5% RH, 7 days, open): 98.2% | Crystal form ([2]; 92.5% RH, 7 days, open): Unchanged | % Purity ([2]; 92.5% RH, 14 days, open): 98.2% | Crystal form ([2]; 92.5% RH, 14 days, open): Unchanged | % Purity ([2]; 92.5% RH, 30 days, open): 98.1% | Crystal form ([2]; 92.5% RH, 30 days, open): Amorphous form | % Purity [2, 4]: 98.1% | Crystal form [2, 4]: Unchanged | % Purity [2, 5]: 97.9% | Crystal form [2, 5]: Unchanged | % Purity [2, 6]: 95.5% | Crystal form [2, 6]: Unchanged | % Purity ([2]; Initial condition, 0 days): 98.3% | physical and chemical stability [3]: good physical and chemical stability | % Purity [3, 9]: 98.2% | % Purity [3, 13]: 98.3% | % Purity [3, 10]: 98.1% | Crystal form [3, 7]: Unchanged | % Purity [3, 11]: 97.7% | % Purity [3, 14]: 97.7% | % Purity [3, 12]: 97.2% | Crystal form [3, 8]: Unchanged | % Purity ([3]; Initial condition): 98.3%

O=C(O)c1ccc2nc(CN3CCC(c4cccc5c4O[C@@H](c4ccc(Cl)cc4F)CO5)CC3)n(C[C@@H]3CCO3)c2c1 [Crystal form I of hydrochloride salt, 2-((4-((S)-3-(4-chloro-2-fluorophenyl)-2,3-dihydrobenzo[b][1,4]dioxan-5-yl)piperidin-1-yl)methyl)-1-(((S)-oxetan-2-yl)methyl)-1H-benzo[d]imidazole-6-carboxylic acid]
% Purity ([2]; 40° C., 5 days, open): 98.0% | Crystal form ([2]; 40° C., 5 days, open): Unchanged | % Purity ([2]; 40° C., 10 days, open): 98.1% | Crystal form ([2]; 40° C., 10 days, open): Unchanged | % Purity ([2]; 40° C., 30 days, open): 97.8% | Crystal form ([2]; 40° C., 30 days, open): Unchanged | % Purity ([2]; 60° C., 5 days, open): 97.6% | Crystal form ([2]; 60° C., 5 days, open): Unchanged | % Purity ([2]; 60° C., 10 days, open): 97.7% | Crystal form ([2]; 60° C., 10 days, open): Unchanged | % Purity ([2]; 60° C., 30 days, open): 97.7% | Crystal form ([2]; 60° C., 30 days, open): Unchanged | % Purity ([2]; 75% RH, 5 days, open): 98.1% | Crystal form ([2]; 75% RH, 5 days, open): Unchanged | % Purity ([2]; 75% RH, 10 days, open): 98.0% | Crystal form ([2]; 75% RH, 10 days, open): Unchanged | % Purity ([2]; 75% RH, 30 days, open): 98.1% | Crystal form ([2]; 75% RH, 30 days, open): Unchanged | % Purity ([2]; 92.5% RH, 5 days, open): 98.1% | Crystal form ([2]; 92.5% RH, 5 days, open): Unchanged | % Purity ([2]; 92.5% RH, 10 days, open): 97.4% | Crystal form ([2]; 92.5% RH, 10 days, open): Unchanged | % Purity ([2]; 92.5% RH, 30 days, open): 96.9% | Crystal form ([2]; 92.5% RH, 30 days, open): Unchanged | % Purity [2, 15]: 97.9% | Crystal form [2, 15]: Unchanged | % Purity [2, 16]: 98.1% | Crystal form [2, 16]: Unchanged | % Purity [2, 6]: 98.0% | Crystal form [2, 6]: Unchanged | % Purity ([2]; Initial condition, 0 days): 98.0% | physical and chemical stability [3]: good physical and chemical stability | % Purity [3, 9]: 98.1% | % Purity [3, 13]: 97.9% | Crystal form [3, 7]: Unchanged | % Purity [3, 11]: 97.8% | % Purity [3, 14]: 97.8% | Crystal form [3, 8]: Unchanged | % Purity ([3]; Initial condition): 98.0%

O=C(O)c1ccc2nc(CN3CCC(c4cccc5c4O[C@@H](c4ccc(Cl)cc4F)CO5)CC3)n(C[C@@H]3CCO3)c2c1 [Crystal form α of malate salt, 2-((4-((S)-3-(4-chloro-2-fluorophenyl)-2,3-dihydrobenzo[b][1,4]dioxan-5-yl)piperidin-1-yl)methyl)-1-(((S)-oxetan-2-yl)methyl)-1H-benzo[d]imidazole-6-carboxylic acid]
% Purity ([2]; 92.5% RH, 5 days, open, listed as crystal form a of malate salt): 99.0% | % Purity ([2]; Initial condition, 0 days, listed as crystal form a of malate salt): 99.0% | % Purity [3, 12]: 97.1% | % Purity ([3]; Initial condition): 99.0%
